What was measured:
[1] = biological target: C-C chemokine receptor type 5 (Homo sapiens, UniProt P51681); assay type: cell membranes, Membrane; settings: hek293; note: in other assays of this panel Not Active means under 50% inhibition at 10 µM
[2] = DRUGMATRIX: Platelet-Derived Growth Factor (PDGF) radioligand binding (ligand: [125I] PDGF); assay type: cell-based; settings: nih3t3; Not Active = under 50% inhibition at 10 µM
[3] = biological target: T1, Nitric oxide synthase, inducible (Mus musculus, UniProt P29477); set-up: species or system Escherichia coli;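 note: inhibition of iNOS enzyme activity measured with L-arginine as substrate; in other assays of this panel Not Active means under 50% inhibition at 10 µM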
T1 sequence (P29477 whole entry): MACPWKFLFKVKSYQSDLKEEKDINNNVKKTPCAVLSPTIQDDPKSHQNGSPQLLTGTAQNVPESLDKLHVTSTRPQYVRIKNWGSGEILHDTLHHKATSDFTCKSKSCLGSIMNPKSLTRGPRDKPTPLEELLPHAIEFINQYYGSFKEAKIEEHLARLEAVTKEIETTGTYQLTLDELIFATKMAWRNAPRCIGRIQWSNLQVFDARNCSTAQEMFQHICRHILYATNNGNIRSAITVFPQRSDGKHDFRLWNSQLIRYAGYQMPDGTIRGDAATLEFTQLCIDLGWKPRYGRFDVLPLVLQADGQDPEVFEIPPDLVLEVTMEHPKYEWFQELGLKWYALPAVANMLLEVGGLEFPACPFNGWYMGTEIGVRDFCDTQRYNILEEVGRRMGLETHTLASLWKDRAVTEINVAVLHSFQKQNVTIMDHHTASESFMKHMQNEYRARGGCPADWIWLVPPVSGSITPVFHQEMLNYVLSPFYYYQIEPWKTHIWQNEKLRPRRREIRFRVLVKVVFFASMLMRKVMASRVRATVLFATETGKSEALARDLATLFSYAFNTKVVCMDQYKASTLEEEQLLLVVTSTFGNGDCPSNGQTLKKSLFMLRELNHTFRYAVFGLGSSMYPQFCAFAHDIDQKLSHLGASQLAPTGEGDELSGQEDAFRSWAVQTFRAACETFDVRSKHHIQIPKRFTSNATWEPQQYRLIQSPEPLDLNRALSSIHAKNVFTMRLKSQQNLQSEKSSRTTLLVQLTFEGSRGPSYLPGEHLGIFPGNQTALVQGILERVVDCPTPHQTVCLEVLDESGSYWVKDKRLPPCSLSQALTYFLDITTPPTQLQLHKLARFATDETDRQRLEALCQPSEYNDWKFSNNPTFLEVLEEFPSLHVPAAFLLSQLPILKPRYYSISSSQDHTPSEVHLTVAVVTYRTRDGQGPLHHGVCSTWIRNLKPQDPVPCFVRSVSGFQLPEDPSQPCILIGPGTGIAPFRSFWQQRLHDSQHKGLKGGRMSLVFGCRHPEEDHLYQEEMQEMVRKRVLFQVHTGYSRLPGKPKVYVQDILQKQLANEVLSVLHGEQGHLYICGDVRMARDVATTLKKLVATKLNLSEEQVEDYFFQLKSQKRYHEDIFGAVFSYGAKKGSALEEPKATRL

[4] = biological target: T2, C-X-C chemokine receptor type 2 (Homo sapiens, UniProt P25025); assay type: cell membranes, Membrane; settings: cho-k1; note: in other assays of this panel Not Active means under 50% inhibition at 10 µM
T2 sequence (P25025 whole entry): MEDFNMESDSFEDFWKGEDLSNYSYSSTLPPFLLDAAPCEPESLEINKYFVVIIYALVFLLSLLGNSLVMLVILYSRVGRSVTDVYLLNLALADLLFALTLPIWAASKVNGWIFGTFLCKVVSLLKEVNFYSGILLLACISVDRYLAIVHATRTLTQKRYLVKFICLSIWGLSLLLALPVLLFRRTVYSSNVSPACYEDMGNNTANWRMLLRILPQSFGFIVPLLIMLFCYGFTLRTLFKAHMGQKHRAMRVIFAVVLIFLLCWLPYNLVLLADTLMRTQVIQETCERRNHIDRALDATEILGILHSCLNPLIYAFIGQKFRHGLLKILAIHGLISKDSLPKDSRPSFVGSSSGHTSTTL

[5] = biological target: T3, Vasoactive intestinal polypeptide receptor 1 (Homo sapiens, UniProt P32241); assay type: cell membranes, Membrane; settings: ht-29; note: in other assays of this panel Not Active means under 50% inhibition at 10 µM
T3 sequence (P32241 whole entry): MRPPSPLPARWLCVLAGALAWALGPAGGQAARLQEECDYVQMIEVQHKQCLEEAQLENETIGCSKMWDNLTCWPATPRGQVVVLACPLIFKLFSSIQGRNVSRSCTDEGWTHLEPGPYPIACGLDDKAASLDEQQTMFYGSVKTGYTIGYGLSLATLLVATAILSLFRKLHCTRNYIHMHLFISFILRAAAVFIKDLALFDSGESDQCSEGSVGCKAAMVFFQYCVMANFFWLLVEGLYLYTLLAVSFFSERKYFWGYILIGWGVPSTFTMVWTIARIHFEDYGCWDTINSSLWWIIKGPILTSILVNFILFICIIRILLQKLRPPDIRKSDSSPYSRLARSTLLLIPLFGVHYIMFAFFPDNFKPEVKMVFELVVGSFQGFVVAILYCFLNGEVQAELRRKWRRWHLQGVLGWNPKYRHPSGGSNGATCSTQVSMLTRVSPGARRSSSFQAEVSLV

[6] = biological target: Kappa-type opioid receptor (Homo sapiens, UniProt P41145); test: DRUGMATRIX: Opiate kappa (OP2, KOP) radioligand binding (ligand: [3H] Diprenorphine); assay type: cell membranes, HEK293, Membrane; settings: hek293; Not Active = under 50% inhibition at 10 µM
[7] = biological target: T4, Alpha-1D adrenergic receptor (Homo sapiens, UniProt P25100); assay type: cell membranes, HEK293, Membrane; settings: hek293; note: in other assays of this panel Not Active means under 50% inhibition at 10 µM
T4 sequence (P25100 whole entry): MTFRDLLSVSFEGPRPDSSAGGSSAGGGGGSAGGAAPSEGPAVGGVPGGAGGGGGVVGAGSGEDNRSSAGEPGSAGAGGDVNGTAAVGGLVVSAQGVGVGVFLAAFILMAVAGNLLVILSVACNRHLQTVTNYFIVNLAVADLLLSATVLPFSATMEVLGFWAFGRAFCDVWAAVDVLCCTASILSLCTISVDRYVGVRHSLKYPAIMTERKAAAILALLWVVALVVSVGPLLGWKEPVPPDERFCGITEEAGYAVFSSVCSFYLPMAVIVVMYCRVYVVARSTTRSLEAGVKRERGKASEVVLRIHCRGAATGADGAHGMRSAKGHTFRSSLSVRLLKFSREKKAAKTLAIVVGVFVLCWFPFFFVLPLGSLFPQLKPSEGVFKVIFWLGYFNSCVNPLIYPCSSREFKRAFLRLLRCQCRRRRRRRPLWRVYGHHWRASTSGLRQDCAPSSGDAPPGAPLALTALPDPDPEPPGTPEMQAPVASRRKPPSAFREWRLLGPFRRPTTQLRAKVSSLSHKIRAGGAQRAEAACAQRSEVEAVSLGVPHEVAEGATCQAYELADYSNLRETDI

Sequence of Kappa-type opioid receptor (P41145 whole entry): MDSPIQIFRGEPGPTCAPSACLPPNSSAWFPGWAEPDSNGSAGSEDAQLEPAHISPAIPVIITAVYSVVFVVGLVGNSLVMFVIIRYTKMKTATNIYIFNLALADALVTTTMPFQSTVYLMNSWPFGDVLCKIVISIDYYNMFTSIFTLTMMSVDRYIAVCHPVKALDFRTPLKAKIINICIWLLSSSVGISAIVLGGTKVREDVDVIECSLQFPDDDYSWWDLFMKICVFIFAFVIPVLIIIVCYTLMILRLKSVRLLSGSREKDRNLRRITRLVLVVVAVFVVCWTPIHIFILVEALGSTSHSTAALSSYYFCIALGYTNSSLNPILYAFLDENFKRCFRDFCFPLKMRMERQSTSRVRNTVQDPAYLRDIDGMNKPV
Sequence of C-C chemokine receptor type 5 (P51681 whole entry): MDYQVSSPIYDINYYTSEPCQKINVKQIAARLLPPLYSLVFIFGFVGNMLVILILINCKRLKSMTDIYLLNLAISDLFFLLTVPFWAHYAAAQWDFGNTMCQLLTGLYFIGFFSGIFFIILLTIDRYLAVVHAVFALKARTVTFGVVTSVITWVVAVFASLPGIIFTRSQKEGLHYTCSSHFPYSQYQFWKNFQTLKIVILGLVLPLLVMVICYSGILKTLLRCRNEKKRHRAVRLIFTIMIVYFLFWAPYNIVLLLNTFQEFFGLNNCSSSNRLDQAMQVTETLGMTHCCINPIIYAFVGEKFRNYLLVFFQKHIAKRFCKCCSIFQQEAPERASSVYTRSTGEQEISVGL

CC[C@H](C)C(=O)O[C@H]1C[C@H](O)C=C2C=C[C@H](C)[C@H](CC[C@@H](O)C[C@@H](O)CC(=O)O)[C@H]21 [PRAVASTATIN]
Not Active: IC50 [1] | IC50 [2] | Ki [2] | IC50 [3] | IC50 [4] | IC50 [5] | IC50 [6] | IC50 [7]

CC(C)(Sc1cc(C(C)(C)C)c(O)c(C(C)(C)C)c1)Sc1cc(C(C)(C)C)c(O)c(C(C)(C)C)c1 [PROBUCOL]
Not Active: IC50 [1] | IC50 [2] | Ki [2] | IC50 [3] | IC50 [4] | IC50 [5] | IC50 [6] | IC50 [7]
